{"source": "patent US11071790B2", "about": "“Method for efficient delivery of therapeutic molecules in vitro and in vivo” (Massachusetts Eye and Ear Infirmary, priority 2014, dated 2021)", "key": {"[1]": {"test_system": "cochlear hair cells and supporting cells of Rosa-tdTomato f/f mouse", "assay": "Cre delivery into Rosa-tdTomato mouse cochlea in vivo (tdT labeling)", "conditions": "for tdT-labeled hair cells: near the injection site (base turn of cochlea)", "protocol": "FIGS. 10A and 10B show the in vivo delivery of Cre recombinase to hair cells in the mouse inner ear. FIG. 10A: The scala media (cochlear duct) of P0 floxP-tdTomato mice (n=4) were injected with 0.3 μL of 23 μM (−30)GFP-Cre in 50% RNAiMAX or with RNAiMAX alone (control). […] Red=tdTomato; green=Myo7a; white=Sox2; blue=DAPI. Yellow brackets indicate the outer hair cell (OHC) region. […] Red=tdTomato; green=Esp, white=Sox2; blue=DAPI, Scale bars: 10 μm.\nFIGS. 11A-11E show the high efficiency of protein delivery mediated by aurein in the inner ear in vivo. […] FIG. 11E: In Opti-MEM injected control mice no tdT labeling was detected in any inner ear cells. Scale bars: 10 μm.\nThe use of (−30)-GFP protein and a new positively charged (+36)-GFP protein to carry Cre, (−30)-GFP-Cre and (+36)-GFP-Cre, was tested for injection into mouse cochlea in vivo. The mouse used was Rosa-tdTomato^f/f in which functional Cre activity in the nuclei results in cells being labeled with tdT (red). It was shown that both (−30)-GFP-Cre and (+36)-GFP-Cre injections led to tdT expression in the cochlear hair cells.\nIt was next tested whether Aurein, an antimicrobial peptide, in combination with s-GFP, can serve as an effective carrier to deliver functional proteins into mouse inner ear cell types with high efficiency. (+36)-GFP-aurein-Cre was injected with different concentrations into P3 Rosa-tdT mouse inner ear by cochleostomy in vivo. The tissues were harvested 5 days later for immunolabeling to identify tdT^+ inner ear cell types. […] At 22.5 μM, 58% of OHC and 75% of IHC, as well as 8% of SC were tdT^+. At the highest 50 μM, 96% of OHC, 88% of IHC and 19% of SC were tdT^+. Some spiral ganglion neurons were also tdT^+ at 22.5 and 50 μM (FIGS. 11A-11E and FIG. 12)."}, "BSR.LNL.tdTomato cells [2]": {"test_system": "BSR.LNL.tdTomato cells", "assay": "primary screen for cytosolic delivery of Cre recombinase (fluorescence image analysis)", "format": "cell-based, hamster", "protocol": "Initial screen of 20 peptide-(+36 GFP)-Cre conjugated proteins. Cytosolic Cre delivery results in recombination and tdTomato expression. The percentage of tdTomato positive cells was determined by fluorescence image analysis. […] Cells were washed and supplanted with full DMEM and incubated for 48 h. Error bars represent the standard deviation of three independent biological replicates.\nBSR.LNL.tdTomato cells were plated at 10,000 cells per well in black 384-well plates (Aurora Biotechnologies). […] Following incubation, the cells were washed three times with PBS+20 U/mL heparin. The cells were incubated a further 48 h in serum-containing media. Cells were fixed in 3% paraformaldehyde and stained with Hoescht 33342 nuclear dye. Images were acquired on an ImageXpress Micro automated microscope (Molecular Devices) using a 4× objective (binning 2, gain 2), with laser- and image-based focusing (offset −130 μm, range ±50 μm, step 25 μm). Images were exposed for 10 ms in the DAPI channel (Hoechst) and 500 ms in the dsRed channel (tdTomato). Image analysis was performed using the cell-scoring module of MetaXpress software (Molecular Devices). All nuclei were detected with a minimum width of 1 pixel, maximum width of 3 pixels, and an intensity of 200 gray levels above background. […] In total, nine images were captured and analyzed per well, and 16 wells were treated with the same fusion protein. The primary screen was completed in biological triplicate.\nBecause Cre recombinase must enter the cell, escape endosomes, enter the nucleus, and catalyze recombination to generate tdTomato fluorescence, this assay reflects the availability of active, non-endosomal recombinase enzyme that reaches the nucleus.\nThe reporter BSR.LNL.tdTomato cells were incubated with 250 nM of each peptide-(+36 GFP)-Cre protein in serum-free media."}, "BSR.LNL.tdTomato cells [3]": {"test_system": "BSR.LNL.tdTomato cells", "assay": "ATP-dependent cell viability assay (CELLTITER-GLO)", "conditions": "1 μM, 48 h after treatment", "protocol": "(§1) FIGS. 15A, 15B are graphs showing the efficacy and toxicity of recombinant expression fusions of aurein 1.2 (“E”) and citropin 1.3 (“U”). […] The percentage of tdTomato positive cells was determined by flow cytometry. Protein fusions were delivered at 125 nM, 250 nM, 500 nM, and 1 μM. […] Protein fusions were delivered at 125 nM, 250 nM, 500 nM, and 1 μM. […] Cells were treated with 250 nM protein for 4 h in serum-free media. Cells were washed and supplanted with full DMEM and incubated for 48 h. Error bars represent the standard deviation of three independent biological replicates.\n(§2) Uptake and delivery assays for Cre fusion proteins were performed as previously described (Cronican, J. J.; et al. ACS Chemical Biology 2010, 5, 747). Briefly, proteins were diluted in serum-free DMEM and incubated on the cells in 48-well plates for 4 h at 37° C. Following incubation, the cells were washed three times with PBS+20 U/mL heparin. The cells were incubated a further 48 h in serum-containing media prior to trypsinization and analysis by flow cytometry. […] Toxicity for alanine scan mutational analysis was determined with LIVE/DEAD fixable far-red dead cell stain (Life Technologies) with 635 nm laser and 670/30 nm filter.\nNext, the toxicity of each fusion protein was evaluated at a range of concentrations (125 nM to 1 μM) using an ATP-dependent cell viability assay at 48 h after treatment."}, "[4]": {"test_system": "cochlear hair cells of Rosa26-tdTomato mice", "assay": "in vivo delivery of Cre recombinase into mouse neonatal cochlea (tdTomato recombination)", "protocol": "0.4 μL of 50 μM+36 GFP-Cre or aurein 1.2-+36 GFP-Cre were injected into the scala media. […] Inner hair cells (IHC), outer hair cells (OHC) and supporting cells in the sensory epithelium (SE) were imaged for the presence of tdTomato, which is only expressed following Cre-mediated recombination. Hair cells were labeled with antibodies against the hair-cell marker Myo7a.\nP1-2 Gt(ROSA)26Sor^tm14(CAG-tdTomato)Hze mice were used for aurein 1.2-+36-GFP-Cre and +36-GFP-Cre injection. The Rosa26-tdTomato mice were from the Jackson Laboratory. […] Mice were anesthetized by hypothermia on ice. Cochleostomies were performed by making an incision behind the ear to expose the cochlea. Glass micropipettes held by a micromanipulator were used to deliver the complex into the scala media, which allows access to inner ear hair cells. […]\nTo quantify the number of tdTomato positive cells after aurein 1.2-+36-GFP-Cre and +36-GFP-Cre, we counted the total number of inner and outer hair cells in a region spanning 100 μm in the apex, middle, and base turn of the cochlea.\nAnesthetized postnatal day 2 (P2) mice were injected with 0.4 μL of 50 μM+36 GFP-Cre or aurein 1.2-+36 GFP-Cre solutions in the scala media to access the cochlear cells. […] Both the hair cells (Myo7a+) and supporting cells (Myo7a−) were evaluated for td Tomato signal."}, "[5]": {"test_system": "glucocorticoid receptor (GR-mCherry) in HeLa cells", "assay": "GR-mCherry translocation assay", "format": "cell-based", "conditions": "1 μM, 30 min", "protocol": "One day prior to transfection 10,000 HeLa cells in 200 μL of DMEM (10% FBS, 1× Pen-Strep) were plated into single wells of a 96-well MATRICAL glass bottom microplate (MGB096-1-2-LG-L) and allowed to adhere overnight. The following day, cells were transfected with GRmCherry using LIPOFECTAMINE® 2000 technologies. Following transfection, cells were allowed to recover overnight in DMEM (+10% FBS). The following day, cells were treated with dexamethasone (Dex) or 1 μM Dex-protein conjugate in the presence or absence of inhibitor diluted into DMEM (without phenol red, +300 nM Hoescht33342). After 30 min, cells were washed twice with 200 μL of HEPES-Krebs-Ringer's (HKR) buffer (140 mM NaCl, 2 mM KCl, 1 mM CaCl2, 1 mM MgCl2, and 10 mM HEPES at pH 7.4), after which 100 μL of HKR buffer was overlaid onto the cells and images were acquired on a Zeiss Axiovert 200M epifluorescence microscope outfitted with Ziess AxiocammRM camera and an EXFO-Excite series 120 Hg arc lamp. The translocation ratio (the ratio of median […] intensity in the nuclear and surrounding regions) for individual cells was measured using CELLPROFILER® as described 36. […]\nAlthough endosomal escape is widely considered to be the major bottleneck of cationic protein delivery (Sahay, G.; et al. Nature Biotechnology 2013, 31, 653), few assays quantify the ability of proteins to escape endosomes on a single-cell basis."}, "BSR.LNL.tdTomato cells [6]": {"test_system": "BSR.LNL.tdTomato cells", "assay": "Cre delivery assay of recombinant fusion proteins (flow cytometry)", "format": "cell-based, hamster", "conditions": "250 nM, fused to +36 GFP-Cre", "protocol": "as §1\nThe percentage of tdTomato positive cells was determined by flow cytometry. […] Cells were washed and supplanted with full DMEM and incubated for 48 h.\nas §2"}}, "note": "No end group written: not given here."}
{"substance": "(−30)-GFP-Cre: negatively supercharged GFP fused to Cre recombinase, SEQ ID NO: 4", "values": [{"measurement": "tdT-labeled hair cells", "setting": "[1]", "result": "~30", "unit": "%"}, {"measurement": "stereocilia of tdTomato-positive outer hair cells", "setting": "[1]; ten days after delivery, 23 μM in 50% RNAiMAX", "result": "intact espin (Esp)-expressing stereocilia of tdTomato-positive outer hair cells were present"}]}
{"substance": "+36 GFP-Cre: superpositively charged GFP fused to Cre recombinase, SEQ ID NO: 1", "values": [{"measurement": "tdT labeling of cochlear cells", "setting": "[1]; 50 μM", "result": "very few IHC and HC were labeled with tdT"}, {"measurement": "tdT-labeled hair cells", "setting": "[1]", "result": "~30", "unit": "%"}, {"measurement": "recombined cells", "setting": "BSR.LNL.tdTomato cells [2]; 250 nM protein with 100 μM chloroquine (positive control)", "result": 48, "unit": "%"}, {"measurement": "cells expressing tdTomato (recombined cells)", "setting": "BSR.LNL.tdTomato cells [2]; 250 nM protein, 4 h serum-free, 48 h", "result": 4.5, "unit": "%"}, {"measurement": "viable cells", "setting": "BSR.LNL.tdTomato cells [3]", "result": 85, "unit": "%"}, {"measurement": "Cre-mediated recombination in inner hair cells (IHC)", "setting": "[4]; apex, 50 μM", "result": 4.4, "unit": "%"}]}
{"substance": "Arg8^Dex: dexamethasone-labeled canonical cell permeable peptide Arg8, SEQ ID NO: 102 (RRRRRRRR; also: dexamethasone label, site not given here)", "values": [{"measurement": "nuclear-to-cytoplasm translocation ratio (TR)", "setting": "[5]", "result": 1.63}]}
{"substance": "GLFDIIKKIAEAF [S12A]", "values": [{"measurement": "overall recombination efficiency of aurein 1.2 variants", "setting": "BSR.LNL.tdTomato cells [6]", "result": "potentially improved overall recombination efficiency"}]}
{"substance": "GLFDIIKKIAESF (listed as Litoria aurea) [aurein 1.2]", "values": [{"measurement": "potency of Cre delivery into cochlear hair cells when fused with aurein 1.2 versus absence of the peptide", "setting": "[4]; live mice", "result": "> 20", "unit": "fold"}]}
{"substance": "GLFDIIKKVASVIGGL [citropin 1.3]", "values": [{"measurement": "level of recombination in the primary screen", "setting": "BSR.LNL.tdTomato cells [2]; 250 nM sortase conjugate of +36 GFP-Cre", "result": "moderate level of recombination"}]}
{"substance": "GLFDIIKRIAESF [K8R]", "values": [{"measurement": "overall recombination efficiency of aurein 1.2 variants", "setting": "BSR.LNL.tdTomato cells [6]", "result": "potentially improved overall recombination efficiency"}]}
